# Assays:
# U-87 MG = test: Concentration required to inhibit the entry of HIV-1 reporter virus (ADA) into U-87 cells by 50%; format: functional, cell-based, U-87MG ATCC
# Rattus norvegicus = test: Area under curve value at 0-6 hr in rat pharmacokinetic screening after 10 mg/kg peroral dose; format: ADME, organism-based; parameters: time < 6 hr, dose 10 mg/kg, route oral; settings: in vivo, po
# [1] = molecular target: T1, Muscarinic acetylcholine receptor M2 (Homo sapiens, UniProt P08172); test: Inhibitory activity against Muscarinic acetylcholine receptor M2
# T1 sequence (P08172 whole entry): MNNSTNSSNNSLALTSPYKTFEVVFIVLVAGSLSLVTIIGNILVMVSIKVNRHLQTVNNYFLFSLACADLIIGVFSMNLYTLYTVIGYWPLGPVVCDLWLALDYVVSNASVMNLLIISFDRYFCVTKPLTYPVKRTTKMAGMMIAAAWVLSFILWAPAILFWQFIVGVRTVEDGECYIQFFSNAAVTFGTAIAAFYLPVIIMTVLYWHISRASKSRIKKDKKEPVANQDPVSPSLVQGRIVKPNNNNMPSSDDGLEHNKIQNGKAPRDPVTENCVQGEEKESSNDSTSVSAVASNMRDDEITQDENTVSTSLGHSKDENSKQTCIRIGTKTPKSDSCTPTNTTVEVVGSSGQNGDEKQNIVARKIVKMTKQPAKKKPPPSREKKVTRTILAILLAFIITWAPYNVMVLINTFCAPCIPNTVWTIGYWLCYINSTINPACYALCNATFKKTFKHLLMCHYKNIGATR
# [2] = T max after oral administration at the dose 10/10 (IV/Po/mg/kg); format: ADME, organism-based; settings: in vivo, 10 mg/kg
# [3] = Percent of Absorption after IV administration at the dose 10/10 (IV/Po/mg/kg); format: ADME, organism-based; settings: in vivo, 10 mg/kg, read-out: Absorption
# [4] = T max after oral administration at the dose 2/2 (IV/Po/mg/kg); format: ADME, organism-based; settings: cercopithecidae, in vivo, 2 mg/kg
# [5] = Percent of bioavailability after oral administration at the dose 10/10 (IV/Po/mg/kg); format: ADME, organism-based; settings: in vivo, 10 mg/kg, read-out: Bioavailabiility
# [6] = Plasma clearance after IV administration at the dose 10/10 (IV/Po/mg/kg); format: ADME, organism-based; settings: 10 mg/kg
# [7] = Plasma clearance after IV administration at the dose 2/2 (IV/Po/mg/kg); format: ADME, organism-based; settings: cercopithecidae, 2 mg/kg
# [8] = C max after oral administration at the dose 10/10 (IV/Po/mg/kg); format: ADME, organism-based; settings: in vivo, 10 mg/kg
# [9] = Half life (t 1/2) after IV administration at the dose 2/2 (IV/Po/mg/kg); format: ADME, organism-based; settings: cercopithecidae, in vivo, 2 mg/kg
# [10] = Percent of Absorption after IV administration at the dose 2/2 (IV/Po/mg/kg); format: ADME, organism-based; settings: cercopithecidae, in vivo, 2 mg/kg, read-out: Absorption
# [11] = Half life (t 1/2) after IV administration at the dose 10/10 (IV/Po/mg/kg); format: ADME, organism-based; settings: in vivo, 10 mg/kg
# [12] = Percent of bioavailability after oral administration at the dose 2/2 (IV/Po/mg/kg); format: ADME, organism-based; settings: cercopithecidae, in vivo, 2 mg/kg, read-out: Bioavailabiility
# [13] = C max after oral administration at the dose 2/2 (IV/Po/mg/kg); format: ADME, organism-based; settings: cercopithecidae, in vivo, 2 mg/kg
Compound,"IC50 (U-87 MG; Homo sapiens, U-87 MG) [nM]",AUC (Rattus norvegicus) [ng·h/mL],also measured
Cc1cccc(C)c1C(=O)N1CCC(C)(N2CCC(Cc3ccc(I)cc3)CC2)CC1,9,–,–
Cc1cccc(C)c1C(=O)N1CCC(C)(N2CCC(Cc3ccc(OC(F)(F)F)cc3)CC2)CC1,5,–,–
CCO/N=C(\c1ccc(Br)cc1)C1CCN(C2(C)CCN(C(=O)c3c(C)cc(O)nc3C)CC2)CC1,0.9,210,–
CCO/N=C(\c1ccc(Br)cc1)C1CCN(C2(C)CCN(C(=O)c3cccnc3C)CC2)CC1,1.4,–,–
CO/N=C(\c1ccc(Br)cc1)C1CCN(C2(C)CCN(C(=O)c3c(C)cccc3C)CC2)CC1 (stereo in doubt),–,2100,IC50 (U-87 MG; u-87mg atcc): 1.4 nM
Cc1cccc(C)c1C(=O)N1CCC(C)(N2CCC(C(O)c3ccc(Br)cc3)CC2)CC1 (stereo unspecified),76,–,–
CCO/N=C(\c1ccc(OC(F)(F)F)cc1)C1CCN(C2(C)CCN(C(=O)c3c(C)cc[n+]([O-])c3C)CC2)CC1,1.8,3000,–
CO/N=C(\c1ccc(C(F)(F)F)cc1)C1CCN(C2(C)CCN(C(=O)c3c(C)cc[n+]([O-])c3C)CC2)CC1,1.1,350,–
Cc1cccc(C)c1C(=O)N1CCC(C)(N2CCC(Cc3ccc(C(F)(F)F)cc3)CC2)CC1,1,–,–
Cc1cccc(C)c1C(=O)N1CCC(C)(N2CCC(Cc3ccc(Br)cc3)CC2)CC1,10,40,Ki [1]: 1320 nM
CNC(=O)CO/N=C(\c1ccc(Br)cc1)C1CCN(C2(C)CCN(C(=O)c3c(C)cccc3C)CC2)CC1,4.4,–,–
Cc1cccc(C)c1C(=O)N1CCC(C)(N2CCC(Cc3ccc(Cl)cc3)CC2)CC1,23,–,–
CO/N=C(/c1ccc(Br)cc1)C1CCN(C2(C)CCN(C(=O)c3c(C)cccc3C)CC2)CC1,2.8,1200,–
CCO/N=C(\c1ccc(Br)cc1)C1CCN(C2(C)CCN(C(=O)c3c(C)ccnc3C)CC2)CC1,0.2,2100,–
Cc1cccc(C)c1C(=O)N1CCC(C)(N2CCC(Cc3ccc(S(C)(=O)=O)cc3)CC2)CC1,7,–,–
CCO/N=C(\c1ccc(Br)cc1)C1CCN(C2(C)CCN(C(=O)c3c(C)cccc3C)CC2)CC1,1.1,1000,–
Cc1cccc(C)c1C(=O)N1CCC(C)(N2CCC(Cc3cccc(Br)c3)CC2)CC1,41,–,–
CCO/N=C(/c1ccc(Br)cc1)C1CCN(C2(C)CCN(C(=O)c3c(C)cccc3C)CC2)CC1,9.2,–,–
COc1ccc(CC2CCN(C3(C)CCN(C(=O)c4c(C)cccc4C)CC3)CC2)cc1,26,–,–
Cc1cccc(C)c1C(=O)N1CCC(C)(N2CCC(Cc3ccccc3Br)CC2)CC1,1300,–,–
CCO/N=C(\c1ccc(Br)cc1)C1CCN(C2(C)CCN(C(=O)c3c(C)cc(C)nc3O)CC2)CC1,6.4,–,–

Compound,"IC50 (U-87 MG; Homo sapiens, U-87 MG) [nM]",AUC (Rattus norvegicus) [ng·h/mL],also measured
CO/N=C(\c1ccc(OC(F)(F)F)cc1)C1CCN(C2(C)CCN(C(=O)c3c(C)cc[n+]([O-])c3C)CC2)CC1,5.1,3300,–
CO/N=C(\c1ccc(Br)cc1)C1CCN(C2(C)CCN(C(=O)c3c(N)cccc3Cl)CC2)CC1,0.6,620,–
Cc1ccc(CC2CCN(C3(C)CCN(C(=O)c4c(C)cccc4C)CC3)CC2)cc1,38,–,–
CO/N=C(\c1ccc(Br)cc1)C1CCN(C2(C)CCN(C(=O)c3c(C)ccnc3C)CC2)CC1,0.5,1900,–
CCO/N=C(\c1ccc(S(C)(=O)=O)cc1)C1CCN(C2(C)CCN(C(=O)c3c(C)cc[n+]([O-])c3C)CC2)CC1,–,0,–
CCO/N=C(\c1ccc(Br)cc1)C1CCN(C2(C)CCN(C(=O)c3c(C)ccc[n+]3[O-])CC2)CC1,1.7,3200,–
C=C(c1ccc(Br)cc1)C1CCN(C2(C)CCN(C(=O)c3c(C)cccc3C)CC2)CC1,1,590,–
Cc1cccc(C)c1C(=O)N1CCC(C)(N2CCC(C(=O)c3ccc(Br)cc3)CC2)CC1,12,–,–
Cc1cccc(C)c1C(=O)N1CCC(C)(N2CCC(/C(=N/OC(C)C)c3ccc(Br)cc3)CC2)CC1,1.7,1700,–
Cc1cccc(C)c1C(=O)N1CCC(C)(N2CCC(/C(=N/OC(C)(C)C)c3ccc(Br)cc3)CC2)CC1,5.7,–,–
CCO/N=C(\c1ccc(Br)cc1)C1CCN(C2(C)CCN(C(=O)c3c(F)cccc3C(F)(F)F)CC2)CC1,2.1,2700,–
CCO/N=C(\c1ccc(C(F)(F)F)cc1)C1CCN(C2(C)CCN(C(=O)c3c(C)cc[n+]([O-])c3C)CC2)CC1,1.3,2200,–
CO/N=C(\c1ccc(Br)cc1)C1CCN(C2(C)CCN(C(=O)c3c(C)cc[n+]([O-])c3C)CC2)CC1,5.6,2400,–
CO/N=C(\c1ccc(Br)cc1)C1CCN(C2(C)CCN(C(=O)c3c(C)cccc3C)CC2)CC1 (stereo in doubt; 14c (Z)),1.2,1400,–
Cc1cccc(C)c1C(=O)N1CCC(C)(N2CCC(/C(=N/O)c3ccc(Br)cc3)CC2)CC1,10,–,–
COc1ccc(S(=O)(=O)c2ccc(CC3CCN(C4CCN(C(=O)c5ccc(F)c6ccccc56)CC4)CC3)cc2)cc1,–,–,Ki [1]: 1.3 nM
CCO/N=C(\c1ccc(Cl)cc1)C1CCN(C2(C)CCN(C(=O)c3c(C)cc[n+]([O-])c3C)CC2)CC1,1.4,1700,–
CO/N=C(\c1ccc(Br)cc1)C1CCN(C2(C)CCN(C(=O)c3c(C)cccc3N)CC2)CC1,0.5,1300,–
CO/N=C(\c1ccc(Br)cc1)C1CCN(C2(C)CCN(C(=O)c3c(C)cccc3O)CC2)CC1,4,3000,–
CCO/N=C(\c1ccc(Br)cc1)C1CCN(C2(C)CCN(C(=O)c3c(C)cc[n+]([O-])c3C)CC2)CC1 [ANCRIVIROC],0.6,6500,Tmax [2]: 0.5 h; Fa [3]: 57%; Tmax [4]: 2 h; bioavailability [5]: 63%; clearance [6]: 12.8 mL/min/kg; clearance [7]: 4.28 mL/min/kg; Cmax [8]: 2500 nM; half-life [9]: 6 h; Fa [10]: 80%; half-life [11]: 5.4 h; bioavailability [12]: 52%; Cmax [13]: 760 nM

# — ChEMBL document CHEMBL1135508, “Synthesis, SAR, and biological evaluation of oximino-piperidino-piperidine amides. 1. Orally bioavailable CCR5 receptor antagonists with potent anti-HIV activity” (J Med Chem, 2002)
